# Patent publication US20140155410A1 (GlaxoSmithKline LLC, priority 2008, published 2014)
# Biological target: T1, Full length Human FAK (Flag-His-TEV-FAK1) (Homo sapiens, UniProt Q05397)
# T1 construct: Full length Human FAK was expressed using baculovirus in Sf9 cells; made in house; host or cells: baculovirus in Sf9 cells
# Assay: Biochemical assay for FAK activity, Assay 2: LANCE Ultra ULight peptide phosphorylation, 665 nm/615 nm ratio
# Settings: Flag-His-TEV-FAK1, 10 μM ATP, 30 min pre-incubation
# Procedure: Flag-His-TEV-FAK1 was prepared in-house. Full length Human FAK was expressed using baculovirus in Sf9 cells with N-terminal FLAG-6×His tags followed by a TEV cleavage site (FLAG-6×His-TEV-huFAK). […] To measure inhibitors of FAK, compounds were first prepared as a 100× stock in 100% DMSO. […] After incubating for 120 minutes at room temperature, the reaction is quenched by adding 5 uL of 20 mM EDTA and 5nMEu-Anti-pTyr antibody in 1× LANCE detection buffer.
# T1 sequence (Q05397 whole entry): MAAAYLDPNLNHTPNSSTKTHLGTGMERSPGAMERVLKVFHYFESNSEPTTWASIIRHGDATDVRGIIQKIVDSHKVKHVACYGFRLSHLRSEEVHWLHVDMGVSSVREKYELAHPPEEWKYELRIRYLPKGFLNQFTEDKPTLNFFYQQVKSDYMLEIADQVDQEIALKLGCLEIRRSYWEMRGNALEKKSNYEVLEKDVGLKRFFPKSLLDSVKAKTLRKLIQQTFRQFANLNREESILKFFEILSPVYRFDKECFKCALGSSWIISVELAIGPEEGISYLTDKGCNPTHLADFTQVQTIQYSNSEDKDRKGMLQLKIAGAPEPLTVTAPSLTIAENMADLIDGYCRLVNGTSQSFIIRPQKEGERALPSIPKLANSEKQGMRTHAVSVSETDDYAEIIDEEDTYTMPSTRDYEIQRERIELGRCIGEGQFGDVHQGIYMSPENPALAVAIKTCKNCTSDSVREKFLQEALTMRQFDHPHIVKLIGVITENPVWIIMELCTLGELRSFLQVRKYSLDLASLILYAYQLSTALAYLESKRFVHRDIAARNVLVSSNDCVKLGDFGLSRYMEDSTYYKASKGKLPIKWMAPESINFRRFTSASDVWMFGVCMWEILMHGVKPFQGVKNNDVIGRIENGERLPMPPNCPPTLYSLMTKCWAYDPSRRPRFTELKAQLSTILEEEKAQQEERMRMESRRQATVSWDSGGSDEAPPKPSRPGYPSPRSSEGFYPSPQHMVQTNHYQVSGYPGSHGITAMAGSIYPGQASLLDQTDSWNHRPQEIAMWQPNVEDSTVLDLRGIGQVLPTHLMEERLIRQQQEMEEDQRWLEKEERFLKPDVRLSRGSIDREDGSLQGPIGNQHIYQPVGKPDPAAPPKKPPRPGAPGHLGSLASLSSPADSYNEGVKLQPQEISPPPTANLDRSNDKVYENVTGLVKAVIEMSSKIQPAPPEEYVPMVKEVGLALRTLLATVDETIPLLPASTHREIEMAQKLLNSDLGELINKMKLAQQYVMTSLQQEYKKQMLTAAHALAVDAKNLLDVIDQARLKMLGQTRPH
row,Assay 2 FAK H 31284A TRF PXC50,SMILES
1,8.3,"CNC(=O)c1cccc(F)c1Nc1cc(Nc2cc(C)nn2C)ncc1Cl [Example 75, 2-({5-Chloro-2-[(1,3-dimethyl-1H-pyrazol-5-yl)amino]-4-pyridinyl}amino)-3-fluoro-N-methylbenzamide]"

# Same assay, conditions: Flag-His-TEV-FAK1, 10 μM ATP, 30 min pre-incubation; read-out: Assay 2 FAK H 31284A TRF PXC50 (converted)
row,IC50,SMILES
1,12.6 nM,"CCn1nc(CCN2CCCC2)cc1Nc1cc(Nc2ccccc2C(=O)NC)c(Cl)cn1 [Example 46, 2-{[5-Chloro-2-({1-ethyl-3-[2-(1-pyrrolidinyl)ethyl]-1H-pyrazol-5-yl}amino)-4-pyridinyl]amino}-N-methylbenzamide]"
2,2.51 nM,"CONC(=O)c1ccccc1Nc1cc(Nc2cnn(C)c2C)ncc1Cl [Example 47, 2-({5-Chloro-2-[(1,5-dimethyl-1H-pyrazol-4-yl)amino]-4-pyridinyl}amino)-N-(methyloxy)benzamide]"
3,63.1 nM,"CONC(=O)c1ccccc1Nc1cc(Nc2c(C)cnn2C(C)C)ncc1Cl [Example 49, 2-[(5-Chloro-2-{[4-methyl-1-(1-methylethyl)-1H-pyrazol-5-yl]amino}-4-pyridinyl)amino]-N-(methyloxy)benzamide]"
4,12.6 nM,"CCn1ncc(C)c1Nc1cc(Nc2ccccc2C(=O)NOC)c(Cl)cn1 [Example 50, 2-({5-Chloro-2-[(1-ethyl-4-methyl-1H-pyrazol-5-yl)amino]-4-pyridinyl}amino)-N-(methyloxy)benzamide]"
5,20 nM,"CONC(=O)c1ccccc1Nc1cc(Nc2c(C)cnn2CC(C)C)ncc1Cl [Example 51, 2-[(5-Chloro-2-{[4-methyl-1-(2-methylpropyl)-1H-pyrazol-5-yl]amino}-4-pyridinyl)amino]-N-(methyloxy)benzamide]"
6,6.31 nM,"CONC(=O)c1ccccc1Nc1cc(Nc2cc(CO)nn2C(C)C)ncc1Cl [Example 52, 2-[(5-Chloro-2-{[3-(hydroxymethyl)-1-(1-methylethyl)-1H-pyrazol-5-yl]amino}-4-pyridinyl)amino]-N-(methyloxy)benzamide]"
7,39.8 nM,"CNC(=O)c1ccccc1Nc1cc(Nc2cc(C)nn2C)ncc1C1CC1 [Example 53, 2-[5-Cyclopropyl-2-(2,5-dimethyl-2H-pyrazol-3-ylamino)-pyridin-4-ylamino]-N-methyl-benzamide]"
8,31.6 nM,"CCn1nc(C)cc1Nc1cc(Nc2ccccc2C(=O)NC)c(C2CC2)cn1 [Example 54, 2-[5-Cyclopropyl-2-(2-ethyl-5-methyl-2H-pyrazol-3-ylamino)-pyridin-4-ylamino]-N-methylbenzamide]"
9,10 nM,"CONC(=O)c1ccccc1Nc1cc(Nc2cc(C)nn2C)ncc1C1CC1 [Example 55, 2-[5-Cyclopropyl-2-(2,5-dimethyl-2H-pyrazol-3-ylamino)-pyridin-4-ylamino]-N-methoxy-benzamide]"
10,15.8 nM,"CCn1nc(C)cc1Nc1cc(Nc2ccccc2C(=O)NOC)c(C2CC2)cn1 [Example 56, 2-[5-Cyclopropyl-2-(2-ethyl-5-methyl-2H-pyrazol-3-ylamino)-pyridin-4-ylamino]-N-methoxy-benzamide]"
11,50.1 nM,"CNC(=O)c1ccccc1Nc1cc(Nc2cc(C)nn2C)ncc1C(C)C [Example 58, 2-[2-(2,5-Dimethyl-2H-pyrazol-3-ylamino)-5-isopropyl-pyridin-4-ylamino]-N-methyl-benzamide]"
12,12.6 nM,"CCn1nc(COC)cc1Nc1cc(Nc2ccccc2C(=O)NC)c(Cl)cn1 [Example 60, 2-{[5-Chloro-2-({1-ethyl-3-[(methyloxy)methyl]-1H-pyrazol-5-yl}amino)-4-pyridinyl]amino}-N-methylbenzamide]"
13,25.1 nM,"CCOCc1cc(Nc2cc(Nc3ccccc3C(=O)NC)c(Cl)cn2)n(C(C)C)n1 [Example 61, 2-[(5-Chloro-2-{[3-[(ethyloxy)methyl]-1-(1-methylethyl)-1H-pyrazol-5-yl]amino}-4-pyridinyl)amino]-N-methylbenzamide]"
14,50.1 nM,"CCn1nc(C)cc1Nc1cc(Nc2ccccc2C(=O)N(C)O)c(Cl)cn1 [Example 63, 2-({5-Chloro-2-[(1-ethyl-3-methyl-1H-pyrazol-5-yl)amino]-4-pyridinyl}amino)-N-hydroxy-N-methylbenzamide]"
15,79.4 nM,"CCONC(=O)c1ccccc1Nc1cc(Nc2cc(C)nn2CC)ncc1Cl [Example 64, 2-({5-Chloro-2-[(1-ethyl-3-methyl-1H-pyrazol-5-yl)amino]-4-pyridinyl}amino)-N-(ethyloxy)benzamide]"
16,15.8 nM,"CNC(=O)c1ccccc1Nc1cc(Nc2cc(C)nn2C)ncc1C#N [Example 65, 2-({5-Cyano-2-[(1,3-dimethyl-1H-pyrazol-5-yl)amino]-4-pyridinyl}amino)-N-methylbenzamide]"
17,2.51 nM,"CONC(=O)c1ccc(Cl)cc1Nc1cc(Nc2cc(C)nn2C(C)C)ncc1Cl [Example 69, 4-Chloro-2-[(5-chloro-2-{[3-methyl-1-(1-methylethyl)-1H-pyrazol-5-yl]amino}-4-pyridinyl)amino]-N-(methyloxy)benzamide]"

row,IC50,SMILES
1,6.31 nM,CONC(=O)c1cc(Cl)ccc1Nc1cc(Nc2cc(C)nn2C(C)C)ncc1Cl [Example 70]
2,6.31 nM,"CONC(=O)c1cc(F)ccc1Nc1cc(Nc2cc(C)nn2C(C)C)ncc1Cl [Example 71, 2-[(5-Chloro-2-{[3-methyl-1-(1-methylethyl)-1H-pyrazol-5-yl]amino}-4-pyridinyl)amino]-5-fluoro-N-(methyloxy)benzamide]"
3,2.51 nM,"CONC(=O)c1cccc(F)c1Nc1cc(Nc2cc(C)nn2C(C)C)ncc1Cl [Example 72, 2-[(5-Chloro-2-{[3-methyl-1-(1-methylethyl)-1H-pyrazol-5-yl]amino}-4-pyridinyl)amino]-3-fluoro-N-(methyloxy)benzamide]"
4,1.26 nM,"CONC(=O)c1ccc(F)cc1Nc1cc(Nc2cc(C)nn2C(C)C)ncc1Cl [Example 73, 2-[(5-Chloro-2-{[3-methyl-1-(1-methylethyl)-1H-pyrazol-5-yl]amino}-4-pyridinyl)amino]-4-fluoro-N-(methyloxy)benzamide]"
5,3.16 nM,"CCn1nc(C)cc1Nc1cc(Nc2c(F)cccc2C(=O)NC)c(Cl)cn1 [Example 74, 2-({5-Chloro-2-[(1-ethyl-3-methyl-1H-pyrazol-5-yl)amino]-4-pyridinyl}amino)-3-fluoro-N-methylbenzamide]"
6,12.6 nM,"CNC(=O)c1cccc(F)c1Nc1cc(Nc2cnn(C)c2C)ncc1Cl [Example 76, 2-({5-Chloro-2-[(1,5-dimethyl-1H-pyrazol-4-yl)amino]-4-pyridinyl}amino)-3-fluoro-N-methylbenzamide]"
7,1 nM,"CCn1nc(C)cc1Nc1cc(Nc2c(F)cccc2C(=O)NC)c(C(F)(F)F)cn1 [Example 77, 2-{[2-[(1-Ethyl-3-methyl-1H-pyrazol-5-yl)amino]-5-(trifluoromethyl)-4-pyridinyl]amino}-3-fluoro-N-methylbenzamide]"
8,1.58 nM,"CNC(=O)c1cccc(F)c1Nc1cc(Nc2cc(C)nn2C)ncc1C(F)(F)F [Example 78, 2-{[2-[(1,3-Dimethyl-1H-pyrazol-5-yl)amino]-5-(trifluoromethyl)-4-pyridinyl]amino}-3-fluoro-N-methylbenzamide]"
9,10 nM,"CCn1nc(CO)cc1Nc1cc(Nc2c(F)cccc2C(=O)NC)c(C(F)(F)F)cn1 [Example 79, 2-{[2-{[1-Ethyl-3-(hydroxymethyl)-1H-pyrazol-5-yl]amino}-5-(trifluoromethyl)-4-pyridinyl]amino}-3-fluoro-N-methylbenzamide]"
10,12.6 nM,"CNC(=O)c1cccc(F)c1Nc1cc(Nc2cc(CO)nn2C)ncc1C(F)(F)F [Example 80, 3-Fluoro-2-{[2-{[3-(hydroxymethyl)-1-methyl-1H-pyrazol-5-yl]amino}-5-(trifluoromethyl)-4-pyridinyl]amino}-N-methylbenzamide]"
11,2 nM,"CCn1nc(CCO)cc1Nc1cc(Nc2c(F)cccc2C(=O)NC)c(C(F)(F)F)cn1 [Example 81, 2-{[2-{[1-Ethyl-3-(2-hydroxyethyl)-1H-pyrazol-5-yl]amino}-5-(trifluoromethyl)-4-pyridinyl]amino}-3-fluoro-N-methylbenzamide]"
12,0.794 nM,"CNC(=O)c1cccc(F)c1Nc1cc(Nc2cc(CCO)nn2C)ncc1C(F)(F)F [Example 82, 3-Fluoro-2-{[2-{[3-(2-hydroxyethyl)-1-methyl-1H-pyrazol-5-yl]amino}-5-(trifluoromethyl)-4-pyridinyl]amino}-N-methylbenzamide]"
13,12.6 nM,"CNC(=O)c1cc(F)ccc1Nc1cc(Nc2cc(C)nn2C)ncc1Cl [Example 83, 2-({5-Chloro-2-[(1,3-dimethyl-1H-pyrazol-5-yl)amino]-4-pyridinyl}amino)-5-fluoro-N-methylbenzamide]"
14,10 nM,"CCn1nc(C)cc1Nc1cc(Nc2ccc(F)cc2C(=O)NC)c(Cl)cn1 [Example 84, 2-({5-Chloro-2-[(1-ethyl-3-methyl-1H-pyrazol-5-yl)amino]-4-pyridinyl}amino)-5-fluoro-N-methylbenzamide]"
15,63.1 nM,"CNC(=O)c1cc(F)ccc1Nc1cc(Nc2cc(C)nn2C(C)C)ncc1Cl [Example 85, 2-[(5-Chloro-2-{[3-methyl-1-(1-methylethyl)-1H-pyrazol-5-yl]amino}-4-pyridinyl)amino]-5-fluoro-N-methylbenzamide]"
16,1.58 nM,"CNC(=O)c1ccc(F)cc1Nc1cc(Nc2cc(C)nn2C(C)C)ncc1Cl [Example 86, 2-[(5-Chloro-2-{[3-methyl-1-(1-methylethyl)-1H-pyrazol-5-yl]amino}-4-pyridinyl)amino]-4-fluoro-N-methylbenzamide]"
17,2.51 nM,"CNC(=O)c1ccc(F)cc1Nc1cc(Nc2cc(C)nn2C)ncc1Cl [Example 87, 2-({5-Chloro-2-[(1,3-dimethyl-1H-pyrazol-5-yl)amino]-4-pyridinyl}amino)-4-fluoro-N-methylbenzamide]"
